Data taken from US9029362B2, “Iminothiadiazine dioxide compounds as brace inhibitors, compositions, and their use” (Merck Sharp & Dohme Corp., priority 2009, dated 2015).
pKi: −log10 of the molar value. Read-outs that look alike come from different tables or passages of the source.

Experiments:
[1] = Solution stability, Example B (pH 7.4 phosphate buffer/acetonitrile, 25° C., LC/MS); assay type: physicochemical; conditions: pH 7.4 buffer at 25° C., after 6 days
Method: Stock solutions of the tested compounds were prepared by dissolving about 3 mg of each compound in 3 mL of acetonitrile. Standards for test compounds were prepared by diluting 1 mL of the stock solution with an additional 4 mL of acetonitrile. These standards were stored at 4° C. Samples were prepared by diluting 1 mL of the stock solution with 4 mL of 50 mM pH 7.4 phosphate buffer. These samples were stored at 25° C. in the absence of light. Standards and samples were analyzed by LC/MS initially and at day 1, day 4, and day 6.
HPLC Conditions: • Mobile phase A: 10 mM pH 5 ammonium acetate buffer: methanol (90:10) • Mobile phase B: 10 mM pH 5 ammonium acetate buffer: methanol (10:90)
Column: Zorbax SB-Phenyl 4.6×50 mm, 1.8 μm • Column temperature: 40° C. • Flow: 0.8 mL/min. • Gradient:
• Detectors: UV at 220 nm and 236 nm
MS, ES ionization, positive mode, for identification only at final time point.
The terms reported in the tables below have the following meanings:
Area % is the integration of peak from HPLC as reported by Waters Empower II software.
RRT is the relative retention time of new product compared to the standard of the test compound.
In the following study, the solution stability of the compound of Example 47 was measured and compared to that of Compound Y. The compound of Example 47 is an iminothiadiazine dioxide compound of the invention. […]

[2] = Solution stability, Example A (pH 7.4 phosphate buffer/MeOH, LC/MS); assay type: physicochemical
Method: A 1.05 mg/mL stock solution (5 mL) of Ex. 45 in MeOH was prepared. From the stock solution was taken out 1.25 mL and diluted to 25 mL with the addition of 23.75 mL of 10 mM phosphate buffer (pH 7.4)/MeOH (70/30 v/v). This new solution was split into three. One solution was incubated at 4° C., another incubated at 25° C. and the third incubated at 40° C. Each solution was analyzed by LC/MS after day 1, day 2 and day 6 and compared to a standard calibration curve for Ex. 45.
In the following study, the solution stability of the compound of Example 45 was measured and compared to that of Compound Z. The compound of Example 45 is an iminothiadiazine dioxide compound of the invention. Compound Z is the corresponding iminopyrimidinone compound. The structures of the compound of Example 45 and of Compound Z are shown below. Studies were performed in aqueous pH 7.4 buffer containing methanol at 4° C., 25° C. and 40° C.

[3] = target: soluble human BACE1 catalytic domain (Homo sapiens (Human), UniProt P56817); test: BACE1 HTRF FRET Assay; assay type: biochemical; conditions: about values; read-out: Ki value in BACE-1 assay
[4] = Caco-2 Bi-directional Permeability; assay type: in vitro ADME; conditions: human; for Papp A→B at 2 h: Caco-2, pH 7.4, apical to basolateral, 2-hr incubation, read-out: Caco-2 AP → BL (nm/s) (Iminothiadiazine Dioxide)
Method: (§1) The bi-directional permeability with efflux potential of selected compounds of the invention vs. otherwise structurally identical iminopyrimidinones (collectively referred to as test compounds, shown in the table below) were assessed using Caco-2 cell line. The Caco-2 cells were maintained in DMEM (Dulbecco's Modified Eagle Medium) containing 10% fetal bovine serum, 1% non-essential amino acids, 2 mM L-glutamine, and 1% penicillin-streptomycin in an incubator at ˜37° C. in an atmosphere of 5% CO2 and about 90% relative humidity. The cell culture medium was changed three times weekly. Caco-2 cell monolayers were grown on polyethylene terephthalate filters using 24-well BD Falcon™ Cell Culture Insert Plates (0.33 cm^2 insert area, 1 μm pore size; BD BioSciences, Bedford, Mass.). The culture medium of the plate was changed every other day until used for the transport experiment (21-28 days post seeding).
(§2) The transport buffer (TM) was Hank's balanced salt solution (HBSS) with 10 mM HEPES and 25 mM glucose (pH 7.4) for dosing and TM with 4% bovine serum albumin for receiver (pH 7.4). The bi-directional permeability of the test compounds were tested at concentrations of 1, 10 and 100 μM was measured in triplicate with 2-hr incubation. The cell monolayer integrity was monitored with pre- and post-experimental trans-epithelial electrical resistance and post-experimental Lucifer Yellow (LY) permeability with 1 hr incubation.
(§3) The apparent permeability, recovery and efflux ratio values were calculated using the following equations:

[5] = test system: rat cortex Aβ40; test: Cortical Aβ40 in rats after oral dose (Luminex immunoassay); assay type: in vivo; conditions: 3 h after a 10 mg/kg oral dose, relative to vehicle cohort; for Change in rat cortex Aβ40 (Iminopyrimidinone): iminopyrimidinone analog
Method: Male CD rats (˜100 g; Crl:CD(SD); Charles River Laboratories, Kingston, N.Y.) were group housed and acclimated to the vivarium for 5-7 days prior to use in a study. Compounds were formulated in 20% hydroxypropyl-β-cyclodextrin and administered orally with a dosing volume of 5 ml/kg for rats. Three h after drug administration, rats were euthanized with excess CO2. The brain was removed from the skull and immediately frozen on dry ice. All tissues were stored at −70° C. until Aβ quantification.
Ab585 was labeled with biotin (b-Ab585) by first dialyzing the antibody sample extensively versus PBS (pH 7.8) to remove impurities, followed by dilution to between 1 and 2 mg/mL protein concentration. EZ-Link Sulfo-NHS-LC-Biotin (Pierce) was dissolved in PBS (pH 7.8) at a concentration of 1 mg/mL immediately prior to use. Ab585 was labeled with EZ-Link Sulfo-NHS-LC-biotin using a 10:1 biotin:antibody ratio by incubation at room temperature for 1 hour. The labeling reaction was quenched by addition of 1.0 M glycine to a final concentration of 0.1 M followed by 10 minute incubation at room temperature. Glycine was removed by extensive dialysis versus PBS.
The antibody was coupled to the beads using the Bio-Plex Amine Coupling Kit (Bio-Rad) as per the manufacturer's recommendations.
Rat brains were thawed briefly at 37° C. and both mid- and hindbrain regions were removed. The remaining material, consisting primarily of cortex (−800 mg) was carried through the guanidine extraction procedure. Cortices were added to a 2 ml BioPur tube (Eppendorf) along with a 6.35 mm chrome-coated steel ball and 1.0 ml of sucrose homogenization buffer (20 mM HEPES [pH 7.5], 50 mM KCl, 50 mM sucrose, 2 mM EDTA, 2 mM EGTA supplemented with complete protease inhibitors [Roche, EDTA-free]). Samples were then homogenized by agitation for 1.5 min at 30 cylces/sec in a MM300 tissue mixer (Retsch®). The resulting cortical homogenate was extracted with guanidine-HCl by mixing 67 μl of homogenate with 133 μl of 5 M Guanidine HCl, 50 mM Tris HCl (pH 8.0). To maximize the efficiency of Aβ extraction, samples were vortexed and then sonicated for 2 minutes in an ice bath using an Ultrasonics XL cup horn sonicator at a power setting of 8 (Heat Systems, Inc.). Insoluble material was removed by ultracentrifugation using a using a TLA-55 rotor in a TL-100 benchtop centrifuge (Beckman) at 100,000×g for 30 minutes. The resulting supernatant was then either diluted 1:10 in 5 M guanidine HCl, 0.05 M Tris HCl (pH 8.0) for protein analysis (BCA protein assay, Pierce Biochemicals) or assayed neat for Aβ340 levels. The Luminex rodent A1340 assay was performed as follows. First, 96 well filter binding plates (Millipore, catalogue #MSBVN12) were wetted with 100 μl of 1×LAβ40 buffer (0.05 M HEPES [pH 7.5], 0.2% BSA, 0.2% Tween-20, 0.15 M NaCl) by vacuum filtration on a Millipore 96-well manifold. […] Guanidine HCl was added to synthetic rodent Aβ40 standards in order to control for the effect of guanidine in brain extracts on the assay performance. Ten microliters of cortical extract, rodent Aβ40 standards or cortical extract from amyloid precursor protein knockout mice (to define background immunoreactivity) was added to each well. Plates were covered and incubated overnight at 4° C. Following the incubation, wells were cleared by vacuum and washed twice with 100 μl of 1×LAβ40 buffer on a Millipore manifold. Phycoerythrin-conjugated streptavidin (PE-strepavidin, BioRad) for detection of bound b-Ab585 was diluted 100-fold in 1×LA340 buffer and 50 μl was added to each well and incubated for 1 hour at room temperature with shaking.

[6] = target: purified human autoBACE-2 (Homo sapiens (Human), UniProt Q9Y5Z0); test: BACE-2 Assay (BACE-HTRF assay); assay type: biochemical
Method: Inhibitor IC50s at purified human autoBACE-2 were determined in a time-resolved endpoint proteolysis assay that measures hydrolysis of the QSY7-[sequence]-Eu-amide FRET peptide substrate (BACE-HTRF assay). […] DMSO was present at 5% final concentration in the assay. Following laser excitation of sample wells at 320 nm, the fluorescence signal at 620 nm was collected for 400 ms following a 50 s delay on a RUBYstar HTRF plate reader (BMG Labtechnologies). Raw RFU data was normalized to maximum (1.0 nM BACE/DMSO) and minimum (no enzyme/DMSO)RFU values. […] The Ki values were calculated from the IC50 using the Cheng-Prusoff equation.

[7] = test system: Caco-2 cells; test: Caco-2 Bi-directional Permeability; assay type: in vitro ADME; conditions: apical to basolateral, 2-hr incubation; for Caco-2 AP → BL (nm/s) (Iminopyrimidinone): iminopyrimidinone analog
Method: as §1, §2, §3

Chain of soluble human BACE1 catalytic domain (P56817 75-416): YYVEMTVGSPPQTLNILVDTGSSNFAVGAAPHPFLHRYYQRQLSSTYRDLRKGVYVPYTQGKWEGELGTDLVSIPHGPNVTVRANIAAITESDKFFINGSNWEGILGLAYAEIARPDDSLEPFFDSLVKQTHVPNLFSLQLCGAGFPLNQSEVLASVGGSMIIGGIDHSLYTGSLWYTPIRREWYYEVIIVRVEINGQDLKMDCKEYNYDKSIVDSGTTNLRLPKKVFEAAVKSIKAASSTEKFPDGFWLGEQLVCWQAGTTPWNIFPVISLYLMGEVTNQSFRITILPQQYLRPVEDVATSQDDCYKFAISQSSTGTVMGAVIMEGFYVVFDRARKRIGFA
Chain of purified human autoBACE-2 (Q9Y5Z0 63-518): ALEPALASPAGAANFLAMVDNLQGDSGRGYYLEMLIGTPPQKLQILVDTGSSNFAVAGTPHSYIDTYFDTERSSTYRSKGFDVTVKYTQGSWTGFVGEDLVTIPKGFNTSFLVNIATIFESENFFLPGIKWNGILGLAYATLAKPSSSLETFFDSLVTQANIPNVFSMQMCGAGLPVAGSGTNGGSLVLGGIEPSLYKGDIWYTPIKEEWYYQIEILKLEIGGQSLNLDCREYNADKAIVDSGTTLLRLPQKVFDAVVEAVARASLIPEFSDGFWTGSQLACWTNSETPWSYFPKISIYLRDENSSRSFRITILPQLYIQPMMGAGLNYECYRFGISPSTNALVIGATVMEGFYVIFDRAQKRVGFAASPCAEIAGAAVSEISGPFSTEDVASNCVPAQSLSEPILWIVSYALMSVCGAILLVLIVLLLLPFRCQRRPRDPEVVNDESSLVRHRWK

Structure (SMILES): CN1C(=N)N[C@](C)(c2cc(-c3cccc(C#N)c3)cs2)CC1=O [Compound Z]
- hydrolysis product [1]: 12.45%
- Assay (Area %), degradation flag ([2]; pH 7.4, 4° C., 2 days): — ((—) stands for >20% degradation)
- Assay (Area %), degradation flag ([2]; pH 7.4, 4° C., 6 days): — ((—) stands for >20% degradation)
- Assay (Area %), degradation flag ([2]; pH 7.4, 25° C., 2 days): — ((—) stands for >20% degradation)
- Assay (Area %), degradation flag ([2]; pH 7.4, 25° C., 6 days): — ((—) stands for >20% degradation)
- Assay (Area %), degradation flag ([2]; pH 7.4, 40° C., 2 days): — ((—) stands for >20% degradation)
- Assay (Area %), degradation flag ([2]; pH 7.4, 40° C., 6 days): — ((—) stands for >20% degradation)

Structure (SMILES): CN1C(=N)N[C@](C)(c2cccs2)CS1(=O)=O [Example 19]
- pKi [3]: ≤ 5.30

Structure (SMILES): CN1C(=N)N[C@](C)(c2cc(NC(=O)c3ccc(F)cn3)ccc2F)CS1(=O)=O [Example 25]
- Papp A→B at 2 h [4]: 12.8 ×10⁻⁶ cm/s
- Change in rat cortex Aβ40 (Iminothiadiazine Dioxide) [5]: −49%

Structure (SMILES): CN1C(=N)N[C@](C)(c2cc(NC(=O)c3ccc(C(F)(F)F)cn3)ccc2F)CS1(=O)=O [Example 26]
- Papp A→B at 2 h [4]: 8.9 ×10⁻⁶ cm/s
- Change in rat cortex Aβ40 (Iminothiadiazine Dioxide) [5]: −33%

Structure (SMILES): CN1C(=N)N[C@](C)(c2cc(NC(=O)c3ccc(Cl)cn3)ccc2F)CS1(=O)=O [Example 34]
- Papp A→B at 2 h [4]: 11.8 ×10⁻⁶ cm/s
- Change in rat cortex Aβ40 (Iminothiadiazine Dioxide) [5]: −51%

Structure (SMILES): Cc1ccc(C(=O)Nc2ccc(F)c([C@]3(C)CS(=O)(=O)N(C)C(=N)N3)c2)nc1 [Example 35]
- Papp A→B at 2 h [4]: 15.1 ×10⁻⁶ cm/s

Structure (SMILES): Cc1cnc(C(=O)Nc2ccc(F)c([C@]3(C)CS(=O)(=O)N(C)C(=N)N3)c2)cn1 [Example 36]
- Papp A→B at 2 h [4]: 5.4 ×10⁻⁶ cm/s
- Change in rat cortex Aβ40 (Iminothiadiazine Dioxide) [5]: −25%

Structure (SMILES): COc1cnc(C(=O)Nc2ccc(F)c([C@]3(C)CS(=O)(=O)N(C)C(=N)N3)c2)cn1 [Example 40ai]
- Papp A→B at 2 h [4]: 13.3 ×10⁻⁶ cm/s
- Change in rat cortex Aβ40 (Iminothiadiazine Dioxide) [5]: −51%

Structure (SMILES): COc1cnc(C(=O)Nc2cc(F)c(F)c([C@]3(C)CS(=O)(=O)N(C)C(=N)N3)c2)cn1 [Example 40di]
- Papp A→B at 2 h [4]: 13.6 ×10⁻⁶ cm/s
- Change in rat cortex Aβ40 (Iminothiadiazine Dioxide) [5]: −38%

Structure (SMILES): CN1C(=N)N[C@](C)(c2cc(NC(=O)c3ccc(S(C)(=O)=O)cn3)cc(F)c2F)CS1(=O)=O [Example 40do]
- pKi ([6]; about values): ≤ 6.30

Structure (SMILES): CN1C(=N)N[C@](C)(c2cc(NC(=O)c3c(F)cncc3C(F)(F)F)cc(F)c2F)CS1(=O)=O [Example 40ex]
- pKi ([6]; about values): ≤ 6.30

Structure (SMILES): Cc1cnc(C(=O)Nc2cc([C@]3(C)CS(=O)(=O)N(C)C(=N)N3)ccn2)cn1 [Example 40x]
- pKi [3]: ≤ 5.30

Structure (SMILES): CN1C(=N)N[C@](C)(c2cc(-c3cccc(C#N)c3)cs2)CS1(=O)=O [Example 45]
- Papp A→B at 2 h [4]: 22.6 ×10⁻⁶ cm/s

Structure (SMILES): CN1C(=N)N[C@](C)(c2cc(-c3ccc(F)c(C#N)c3)cs2)CS1(=O)=O [Example 46]
- Papp A→B at 2 h [4]: 18.9 ×10⁻⁶ cm/s

Structure (SMILES): CC#Cc1cncc(-c2cc(Cl)c([C@]3(C)CS(=O)(=O)N(C)C(=N)N3)s2)c1 [Example 52]
- Papp A→B at 2 h [4]: 27.8 ×10⁻⁶ cm/s

Structure (SMILES): CC[C@H]1[C@@](C)(c2cc(F)ccc2F)NC(=N)N(C)S1(=O)=O [Example 98]
- pKi [3]: ≤ 5.30

Structure (SMILES): CC1[C@@](C)(c2cccc(-c3cccc(C#N)c3)c2)NC(=N)N(C)S1(=O)=O (stereo partly shown) [Example 101]
- pKi [3]: ≤ 5.30

Structure (SMILES): CN1C(=N)NC(C)(c2cc(NC(=O)N3CCCCC3)ccc2F)CS1(=O)=O (stereo not shown) [Example 160]
- pKi [6]: ≤ 6.30

Structure (SMILES): CN1C(=N)N[C@](C)(c2cc(NC(=O)N3CCOCC3)ccc2F)CS1(=O)=O [Example 161a]
- pKi ([6]; about values): ≤ 6.30

Structure (SMILES): CN1C(=N)N[C@](C)(c2cccc(Nc3ncccc3C#N)n2)CS1(=O)=O [Example 164]
- pKi ([6]; about values): ≤ 6.30

Structure (SMILES): CN1C(=N)N[C@](C)(c2c(F)ccc(NC(=O)c3ccc(F)cn3)c2F)CS1(=O)=O [Example 173]
- Caco-2 AP → BL (nm/s) (Iminothiadiazine Dioxide) [7]: 126 nm/s
- Change in rat cortex Aβ40 (Iminothiadiazine Dioxide) [5]: −27%

Structure (SMILES): CCc1cc2cc(F)c([C@]3(C)CS(=O)(=O)N(C)C(=N)N3)cc2[nH]1 [Example 189]
- pKi [3]: ≤ 5.30

Structure (SMILES): CN1C(=N)N[C@](C)(c2cc(NC(=O)c3ccc(Cl)cn3)ccc2F)CC1=O [drawing 705, reference compound]
- Change in rat cortex Aβ40 (Iminopyrimidinone) [5]: −19%

Structure (SMILES): CN1C(=N)N[C@](C)(c2cc(NC(=O)c3ccc(C(F)(F)F)cn3)ccc2F)CC1=O [drawing 707, reference compound]
- Change in rat cortex Aβ40 (Iminopyrimidinone) [5]: 0%

Structure (SMILES): CN1C(=N)N[C@](C)(c2cc(NC(=O)c3ccc(F)cn3)ccc2F)CC1=O [drawing 709, reference compound]
- Change in rat cortex Aβ40 (Iminopyrimidinone) [5]: −11%

Structure (SMILES): COc1cnc(C(=O)Nc2cc(F)c(F)c([C@]3(C)CC(=O)N(C)C(=N)N3)c2)cn1 [drawing 713, reference compound]
- Change in rat cortex Aβ40 (Iminopyrimidinone) [5]: +5%

Structure (SMILES): CN1C(=N)N[C@](C)(c2cc(NC(=O)c3ccc(F)cn3)ccc2F)CC1=O [drawing 717, reference compound]
- Change in rat cortex Aβ40 (Iminopyrimidinone) [5]: −3%

Structure (SMILES): CN1C(=N)N[C@](C)(c2cc(-c3cccc(C#N)c3)cs2)CC1=O [drawing 719, reference compound]
- Change in rat cortex Aβ40 (Iminopyrimidinone) [5]: −5%

Structure (SMILES): CN1C(=N)N[C@](C)(c2cc(NC(=O)c3ccc(Cl)cn3)ccc2F)CC1=O [drawing 727, reference compound]
- Caco-2 AP → BL (nm/s) (Iminopyrimidinone) [7]: 0 nm/s

Structure (SMILES): CN1C(=N)N[C@](C)(c2cc(NC(=O)c3ccc(C(F)(F)F)cn3)ccc2F)CC1=O [drawing 729, reference compound]
- Caco-2 AP → BL (nm/s) (Iminopyrimidinone) [7]: 17 nm/s

Structure (SMILES): CN1C(=N)N[C@](C)(c2cc(NC(=O)c3ccc(F)cn3)ccc2F)CC1=O [drawing 731, reference compound]
- Caco-2 AP → BL (nm/s) (Iminopyrimidinone) [7]: 22 nm/s

Structure (SMILES): COc1cnc(C(=O)Nc2cc(F)c(F)c([C@]3(C)CC(=O)N(C)C(=N)N3)c2)cn1 [drawing 735, reference compound]
- Caco-2 AP → BL (nm/s) (Iminopyrimidinone) [7]: 65 nm/s

Structure (SMILES): CN1C(=N)N[C@](C)(c2cc(NC(=O)c3ccc(F)cn3)ccc2F)CC1=O [drawing 739, reference compound]
- efflux ratio at 2 h ([4]; Caco-2, Papp BL to AP / Papp AP to BL, iminopyrimidinone analog): 6.1
- Caco-2 AP → BL (nm/s) (Iminopyrimidinone) [7]: 25 nm/s

Structure (SMILES): CN1C(=N)N[C@](C)(c2cc(-c3cccc(C#N)c3)cs2)CC1=O [drawing 741, reference compound]
- Caco-2 AP → BL (nm/s) (Iminopyrimidinone) [7]: 174 nm/s

Structure (SMILES): CC#Cc1cncc(-c2cc(Cl)c([C@]3(C)CC(=O)N(C)C(=N)N3)s2)c1 [drawing 745, reference compound]
- Caco-2 AP → BL (nm/s) (Iminopyrimidinone) [7]: 153 nm/s

Structure (SMILES): Cc1cnc(C(=O)Nc2ccc(F)c([C@]3(C)CC(=O)N(C)C(=N)N3)c2)cn1 [reference compound]
- Caco-2 AP → BL (nm/s) (Iminopyrimidinone) [7]: 11 nm/s

Structure (SMILES): Cc1ccc(C(=O)Nc2ccc(F)c([C@]3(C)CC(=O)N(C)C(=N)N3)c2)nc1 [reference compound]
- Caco-2 AP → BL (nm/s) (Iminopyrimidinone) [7]: 0 nm/s

Structure (SMILES): CN1C(=N)N[C@](C)(c2cc(-c3ccc(F)c(C#N)c3)cs2)CC1=O [reference compound]
- Caco-2 AP → BL (nm/s) (Iminopyrimidinone) [7]: 136 nm/s
